Patent US6159961A, “Cephem compounds” (Fujisawa Pharmaceutical Co., Ltd., priority 1995, dated 2000)
Converted amounts (≈) assume the structure as drawn. Read-outs that look alike come from different tables or passages of the source.

Legend:
[1] = test system: Methicillin susceptible S. aureus; test: In vitro antibacterial activity (MIC), two-fold agar-plate dilution method, methicillin susceptible S. aureus; format: cell-based; details: Staphylococcus aureus, HI-agar, 37° C., 20 hours, read-out: MIC (minimal inhibitory concentration)
Protocol: (§1) In vitro antibacterial activity were determined by the two-fold agar-plate dilution method as described below.
(§2) One loopful of an overnight culture of each test strain in Trypticase-soy broth (10^8 viable cells per ml) was streaked on heart infusion agar (HI-agar)containing graded concentrations of representative test compound, and the minimal inhibitory concentration (MIC) was expressed in terms of mg/ml after incubation at 37° C. for 20 hours.

[2] = Urinary excretion, bile excretion and plasma level after oral administration to rats; format: in vivo, Male JCL SD rats; details: rat, 20 mg/kg, fasted; for dose excreted at 24 h: 0-24 hours
Protocol: Male JCL SD atrain rats (age, 6 weeks) were used. Test compound was suspended in 0.5% methyl cellurose solution. The rats were atarved overnight before dosing with 20 mg /kg. Urine samples were collected at 0 to 6 and 6 to 24 hours after oral administration. Bile samples were collected at same interval as that of urine samples after a polyethylene cannula was inserted into the bile duct. Plasma samples were obtained by heart puncture at specified times after dosing. Concentrations of test compounds were measured by the disc-plate diffusion method using E. coli ATCC 39188 as test organism and nutrient agar (Difco) as the test medium. The diluents for standard curves were prepared with plasma from rat for determining the plasma levels, with 1/15 M phosphate buffer (pH7.0) for determining the urinary and biliary levels. The plate were incubated at 37° C. for 18 hours and the zone of inhibition were mesured and the recovery rate was calculated by comparing with the standard.

E. faecalis = test: In vitro antibacterial activity (MIC), two-fold agar-plate dilution method, E. faecalis; format: cell-based; details: Enterococcus faecalis, HI-agar, 37° C., 20 hours, read-out: MIC (minimal inhibitory concentration)
Protocol: as §1, §2

[3] = bile, read-out: Biliary recovery in 24 hours
[4] = urine, read-out: Urinary recovery in 24 hours

## Nc1nc(/C(=N/O)C(=O)N[C@@H]2C(=O)N3C(C(=O)O)=C(SCc4cnn[nH]4)CS[C@H]23)c(Cl)s1 [(3)]
[1]
  MIC: 270 µg/mL (≈ 522 µM)
[2]; [3]
  dose excreted at 24 h: 37.5%
[2]; [4]
  dose excreted at 24 h: 7.62%
E. faecalis
  MIC: 2100 µg/mL (≈ 4060 µM)

## Nc1nc(/C(=N/O)C(=O)N[C@@H]2C(=O)N3C(C(=O)O)=C(SCc4cccnc4)CS[C@H]23)c(Cl)s1 [(2)]
[1]
  MIC: 230 µg/mL (≈ 436 µM)
[2]; [3]
  dose excreted at 24 h: 19.6%
[2]; [4]
  dose excreted at 24 h: 17%
E. faecalis
  MIC: 2100 µg/mL (≈ 3980 µM)

## Nc1nc(/C(=N/O)C(=O)N[C@@H]2C(=O)N3C(C(=O)O)=C(SCc4cn[nH]c4)CS[C@H]23)c(Cl)s1 [(1)]
[1]
  MIC: 250 µg/mL (≈ 485 µM)
[2]; [3]
  dose excreted at 24 h: 29%
[2]; [4]
  dose excreted at 24 h: 39.7%
[2]; plasma
  AUC: 52900 ng·h/mL
  Cmax: 21800 ng/mL
E. faecalis
  MIC: 2900 µg/mL (≈ 5620 µM)
